{
  "source": "patent US7745492B2",
  "about": "“Carboxamido opioid compounds” (Janssen Pharmaceutical, priority 2004, dated 2010)",
  "key": {"[1]": {"system": "spinal nerve ligated rats", "assay": "Investigation of tolerance development to antiallodynic effect", "assay_type": "in vivo, rat", "conditions": "dosing for five days, evaluated days one and five", "method": "Investigation of Tolerance Development\nThe development of tolerance to the analgesic effect of mu opioid compounds is well known. The development of tolerance to the antiallodynic effect of the Compound 3 was investigated by administering the compound to spinal nerve ligated rats for five days. The antiallodynic effect of the compound was evaluated on days one and five."}, "Human mu opioid": {"target": "T1, Human mu opioid (Homo sapiens, UniProt P35372)", "T1 construct": "host or cells: CHO cell membranes", "T1 sequence (P35372 whole entry)": "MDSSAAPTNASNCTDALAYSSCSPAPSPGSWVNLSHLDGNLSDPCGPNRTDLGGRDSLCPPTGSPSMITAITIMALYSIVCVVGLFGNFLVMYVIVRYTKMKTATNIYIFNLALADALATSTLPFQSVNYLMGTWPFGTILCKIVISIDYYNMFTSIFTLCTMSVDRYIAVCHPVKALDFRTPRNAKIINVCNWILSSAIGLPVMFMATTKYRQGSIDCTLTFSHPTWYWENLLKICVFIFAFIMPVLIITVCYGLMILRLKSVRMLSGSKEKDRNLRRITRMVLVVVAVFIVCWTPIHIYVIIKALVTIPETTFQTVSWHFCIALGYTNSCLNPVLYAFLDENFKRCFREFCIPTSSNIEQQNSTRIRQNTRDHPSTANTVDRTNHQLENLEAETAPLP", "assay": "[35S]GTPγS binding assay in human mu opioid-CHO cell membranes", "assay_type": "biochemical", "method": "[^35S]GTPγS Binding Assay in Human mu opioid-CHO Cell Membranes\nHuman mu-CHO cell membranes were purchased from Receptor Biology, Inc. (Baltimore, Md.). About 10 mg/ml of membrane protein was suspended in 10 mM TRIS-HCl, pH 7.2, 2 mM EDTA, 10% sucrose.\nMembranes were maintained at 4-8° C. 1 ml of membranes was added into 15 ml cold assay buffer, containing 50 mM HEPES, pH 7.6, 5 mM MgCl2, 100 mM NaCl, 1 mM DTT and 1 mM EDTA. The membrane suspension was homogenized with a Polytron 2 times and centrifuged at 3000 rpm for 10 min. The supernatant was then centrifuged at 18,000 rpm for 20 min. The pellet was resuspended in 10 ml assay buffer with a Polytron.\nThe pellet membranes (20 μg/ml) were preincubated with Scintillation Proximity Assay beads (SPA, 10 mg/ml) at 25° C. for 45 min in the assay buffer. The SPA beads (5 mg/ml) coupled with membranes (10 μg/ml) were then incubated with 0.5 nM [^35S]GTPγS in the same HEPES buffer containing 50 μM GDP in total volume of 200 μl. A range of concentrations of receptor agonists were used to stimulate [^35S]GTPγS binding. The basal binding was tested in the absence of agonist and non-specific binding was tested in the presence of 10 μM unlabeled GTPγS. Radioactivity was quantified on a Packard TopCount.\nData were Calculated as Follows: % of basal=(stimulated−non-specific)*100/(basal−non specific) % Inhibition=(% Basal of 1 μM DAMGO−% Basal of compound)*100/(% Basal of 1 μM DAMGO−100)\nEC50 values were calculated using the Prism program."}, "mu opioid receptor": {"target": "T2, mu opioid receptor (Rattus norvegicus, UniProt P33535)", "T2 construct": "from tissue; host or cells: rat forebrain membrane (particulate) preparation", "T2 sequence (P33535 whole entry)": "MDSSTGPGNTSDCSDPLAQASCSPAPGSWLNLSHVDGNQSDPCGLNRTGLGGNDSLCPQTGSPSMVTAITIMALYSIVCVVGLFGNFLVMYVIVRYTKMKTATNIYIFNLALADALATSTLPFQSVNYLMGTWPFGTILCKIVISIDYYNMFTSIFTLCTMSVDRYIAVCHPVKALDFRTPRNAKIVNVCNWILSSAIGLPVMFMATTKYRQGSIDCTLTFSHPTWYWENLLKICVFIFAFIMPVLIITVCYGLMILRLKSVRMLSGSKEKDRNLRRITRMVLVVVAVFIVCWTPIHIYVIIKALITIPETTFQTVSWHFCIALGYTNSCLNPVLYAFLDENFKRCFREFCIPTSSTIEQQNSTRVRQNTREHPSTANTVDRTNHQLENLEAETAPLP", "assay": "Rat brain mu opioid receptor binding assay ([3H]DAMGO)", "conditions": "rat forebrain membranes, 25° C.", "method": "Rat Brain Mu and Delta Opioid Receptor Binding Assay\nMale, Wistar rats (150-250 g, VAF, Charles River, Kingston, N.Y.) were killed by cervical dislocation and their brains removed and placed immediately in ice cold Tris HCl buffer (50 mM, pH 7.4). The forebrains were separated from the remainder of the brain by a coronal transection, beginning dorsally at the colliculi and passing ventrally through the midbrain-pontine junction. After dissection, the forebrains were homogenized in Tris buffer in a Teflon®-glass homogenizer. The homogenate was diluted to a concentration of 1 g of forebrain tissue per 100 mL Tris buffer and centrifuged at 39,000×G for 10 min. The pellet was resuspended in the same volume of Tris buffer with several brief pulses from a Polytron homogenizer. This particulate preparation was used for the opioid receptor binding assays. Following incubation with the mu opioid selective peptide ligand [^3H]DAMGO or the delta opioid selective ligand [^3H]DPDPE at 25° C., the tube contents were filtered through Whatman GF/B filter sheets on a Brandel cell harvester. The tubes and filters were rinsed three times with 4 mL of 10 mM HEPES (pH 7.4) and the radioactivity associated with the filter circles determined using Formula 989 scintillation fluid (New England Nuclear, Boston, Mass.) in a scintillation counter.\nThe data were used to calculate a Ki value, using GraphPad Prism."}, "Male Sprague Dawley rats": {"system": "Male Sprague Dawley rats", "assay": "Spinal nerve ligation (SNL) model of neuropathic pain, mechanical allodynia (Von Frey)", "assay_type": "in vivo", "conditions": "rat, at 2 h", "method": "Spinal Nerve Ligation (SNL) Model of Neuropathic Pain\nMale Sprague Dawley rats weighing 145 to 165 g (approximately 6 weeks of age) were obtained from Harlan (Indianapolis, Ind.). Food and water were provided ad lib and a 12 h light and 12 h dark cycle were maintained. Animals were group housed under specific pathogen-free, barrier maintained environment and were allowed to acclimate for no less than 1 week. Following surgery, animals were housed individually in solid bottom polycarbonate cages with automatic watering devices at 22° C. and a relative humidity of 60%. All animals received Harland Tekland Diet # 8604.\nAnesthesia was induced using isoflurane (IsoVet™) inhalant in an induction chamber (3-5% in 2 L/min of O2). Once recumbent, the animal was removed and placed into a nose cone which delivered inhalant isoflurane (0.5-2.5% at 2 L/min Of O2). The dorsal pelvic area was shaved and scrubbed aseptically with chlorhexidine scrub, 70% alcohol, and a 5% chlorhexidine solution. The animal was held in ventral recumbency on a heating pad, and the surgical procedure described by Kim and Chung (1992) was performed. The left paraspinal muscles were separated from the spinous processes at the level of Lumbar 4 to Sacral 2 (L4-S2). Once the musculature was retracted, the L6 transverse process was removed using a small rongeur. L4 and L5 spinal nerves could then be visualized. L5 was then isolated and ligated using 6-0 silk suture material. Warm saline and a dose of long-acting antibiotic was administered immediately post-op before recovery form anesthesia.\nAt least one week following surgery, animals were individually placed in a Lucite testing chamber with a wire mesh bottom. Mechanical (tactile) allodynia was measured by recording the pressure at which the affected paw was withdrawn from graded stimuli (Von Frey hairs ranging from 4.0 to 148.1 mN equivalent to 0.25 to 15 g of pressure) applied to the plantar surface of the paw (between the footpads) according to the procedure of Chaplan et. al (1994) in order to calculate paw withdrawal threshold (PWT). Normal rats can withstand at least 15 g of pressure without responding. SNL rats can respond to as little as 0.25 g of pressure. Rats were included in this study only if their PWT was below 4.0 g.\nAnimals were used for compound testing between 2 weeks and 8 weeks post-operatively. Animals were always pre-tested for baseline withdrawal threshold on the day of testing. Following a 16 h fast, PWT was evaluated at 30 min, 1 h, 2 h, and 4 h post-dosing. Dose-response studies were conducted at the time of peak effect. Studies were conducted in a blinded manner.\nData were normalized and results were presented as % MPE (maximum possible effect) of the drug."}},
  "data": [
    {"smiles": "CN(C)C[C@H]1CCCC[C@]1(O)c1cccc(C(N)=O)c1", "note": "(single isomer, unassigned) [Cpd 3]", "values": [
      {"measurement": "Development of tolerance to the antiallodynic effect", "setting": "[1]", "result": "did not diminish the antiallodynic effect"},
      {"measurement": "EC50", "setting": "Human mu opioid", "result": 167, "unit": "nM"},
      {"measurement": "Mu opioid GTPγS relative efficacy", "setting": "Human mu opioid", "result": 75, "unit": "%"},
      {"measurement": "Ki", "setting": "mu opioid receptor", "result": 15.5, "unit": "nM"},
      {"measurement": "ED50", "setting": "Male Sprague Dawley rats", "result": 17, "unit": "mg/kg"}
    ]}
  ]
}
